Assays:
[1] = Hydrogen peroxide scavenging (H2O2) assay; details: phosphate buffer pH 7.4, 230 nm, 10 min; L-ascorbic acid standard; read-out: IC50 ± SEM (hydrogen peroxide assay)
Description: To compare and best evaluate the antioxidant potential of newly synthesized hesperitin derivatives, hydrogen peroxide assay was performed by the method described by Patel et al. with some modifications. The solution of H2O2 (100 mM) was prepared via the adding up different concentrations of synthesized derivatives ranging from 5 to 80 μg/mL to H2O2 solution (2 mL), prepared in 20 mM phosphate buffer of pH 7.4. Finally, the absorbance of H2O2 was measured at 230 nm after incubating for 10 min next to a blank reading of phosphate buffer without H2O2. For every measurement, a fresh reading of blank was taken to carry out background correction. For control sample containing H2O2 was scanned for absorbance at 230 nm. Results calculated as percentage of hydrogen peroxide inhibition was estimated by the formula [(Ab − At)/[…]] × 100, where Ab is the absorbance of the control and At is the absorbance of compounds/standard taken as L-ascorbic acid (5–80 μg/mL) are shown in Table 3.

[2] = Antioxidant activity by DPPH method; details: methanol, 37 °C, 517 nm; ascorbic acid positive control; read-out: IC50 ± SEM (DPPH assay)
Description: The antioxidant potential of hesperitin derivatives was performed by DPPH method evaluated in the form of IC50 estimated using the ELISA plate reader EPOCH™ “MICROPLATE READER (BIOTEK)”. This method opted for evaluation of free radical scavenging activity of DPPH was base on modified procedure described by Dhiman et al.. The tested compounds were prepared in methanolic solution and reacted with methanolic solution of DPPH at 37 °C. The reaction mixture was prepared in 96-well plate by adding 50 µL of sample, 50 µL […] of methanol and 50 µL of DPPH solution prepared in 0.1 mM in methanol. The mechanism of action of DPPH assay was based on the fact that DPPH radical get reduced during its reaction with an antioxidant compound and results in changes of color (from deep violet to light yellow). The absorbance was read at 517 nm for 30 min at an interval of 5 min of using ELISA microplate reader. The mixture of methanol (5.0 mL) and tested compounds (0.2 mL) serve as blank. Ascorbic acid served as positive control.

human xanthine oxidase = biological target: T1, human xanthine oxidase (Homo sapiens, UniProt P47989); test: In vitro xanthine oxidase inhibitory activity (XO activity assay kit, H2O2 read at 570 nm); format: biochemical; details: 25 °C, xanthine substrate, allopurinol positive control; read-out: IC50 xanthine oxidase inhibition
T1 construct: purchased Sigma (sigma-aldrich.co, USA) MAK078
Description: For this research, the analytical grade chemicals necessary for synthesis and antioxidant activity were purchased from Hi-media Laboratories. The in vitro evaluation of the human xanthine oxidase inhibitory activity was performed by measuring hydrogen peroxide (H2O2) production from oxidation of […], utilizing the human xanthine oxidase assay kit (Sigma USA). The progress of reaction was observed through thin layer chromatography (TLC) on 0.25 mm precoated silica gel plates purchased from Merck, reaction spots were envisaged in iodine compartment and UV. Melting points were measured using a Sonar melting point apparatus and uncorrected. ^1H NMR and ^13C NMR spectra were documented in DMSO and deuterated CDCl3 respectively on Bruker Avance II 400 NMR spectrometer at the frequency of 400 MHz using tetramethylsilane standard (downfield) moreover chemical shifts were expressed in ppm (δ) using the residual solvent line as internal standard. Infrared (IR) spectra were recorded on Perkin Elmer FTIR spectrophotometer by utilizing KBr pellets system.
The method opted to evaluate the inhibitory potential of hesperitin derivatives was a modified protocol of Sigma, done by UV-spectrophotometric method by using xanthine oxidase activity assay kit purchased from sigma (MAK078, sigma-aldrich.co, USA). The colorimetric product obtained in the form of hydrogen peroxide generated during the oxidation of XO was determined by a coupled enzyme technique, measured at 570 nm in a 96-well plate, using the plate reader EPOCH™ “MICROPLATE READER (BIOTEK)”. One unit of XO is defined as the amount of enzyme that catalyzes the oxidation of xanthine substrate, yielding 1.0 µmol of uric acid and hydrogen peroxide per minute at 25 °C. Reagents used were 44 µL of xanthine oxidase assay buffer, 2 µL xanthine substrate solution and 2 µL of xanthine oxidase enzyme solution. All the solutions mentioned above were mixed to prepare reaction mixture. The different concentrations of synthesized derivatives having final volume 50 µL were prepared in dimethyl sulfoxide (DMSO) and added to 96 well plate. To each well 50 µL of reaction mix was added and mixed well. After 2–3 min initial measurement was taken. The plates were incubated at 25 °C taking measurements at every 5 min.

xanthine oxidase = test: Enzyme kinetic analysis for XO-inhibitory activity (Michaelis-Menten, Lineweaver-Burk); format: biochemical, human; details: without inhibitor 117.6
Description: Firstly Michaelis–Menten curve was plotted for the enzyme activity at different concentrations of HET4 against different concentration of xanthine substrate (Fig. 6).
Then double reciprocal plot (Lineweaver–Burk) analysis was done in the presence (0.25, 0.5, and 1.0 µM) and absence of HET4 from in vitro data generated during the oxidation of xanthine in presence of xanthine oxidase (Fig. 7). The x- and y-axis intercepts of the Lineweaver–Burk plot were utilized to calculate Km and Vmax values of HET4 at different concentrations (Table 2).

T1 sequence (P47989 whole entry): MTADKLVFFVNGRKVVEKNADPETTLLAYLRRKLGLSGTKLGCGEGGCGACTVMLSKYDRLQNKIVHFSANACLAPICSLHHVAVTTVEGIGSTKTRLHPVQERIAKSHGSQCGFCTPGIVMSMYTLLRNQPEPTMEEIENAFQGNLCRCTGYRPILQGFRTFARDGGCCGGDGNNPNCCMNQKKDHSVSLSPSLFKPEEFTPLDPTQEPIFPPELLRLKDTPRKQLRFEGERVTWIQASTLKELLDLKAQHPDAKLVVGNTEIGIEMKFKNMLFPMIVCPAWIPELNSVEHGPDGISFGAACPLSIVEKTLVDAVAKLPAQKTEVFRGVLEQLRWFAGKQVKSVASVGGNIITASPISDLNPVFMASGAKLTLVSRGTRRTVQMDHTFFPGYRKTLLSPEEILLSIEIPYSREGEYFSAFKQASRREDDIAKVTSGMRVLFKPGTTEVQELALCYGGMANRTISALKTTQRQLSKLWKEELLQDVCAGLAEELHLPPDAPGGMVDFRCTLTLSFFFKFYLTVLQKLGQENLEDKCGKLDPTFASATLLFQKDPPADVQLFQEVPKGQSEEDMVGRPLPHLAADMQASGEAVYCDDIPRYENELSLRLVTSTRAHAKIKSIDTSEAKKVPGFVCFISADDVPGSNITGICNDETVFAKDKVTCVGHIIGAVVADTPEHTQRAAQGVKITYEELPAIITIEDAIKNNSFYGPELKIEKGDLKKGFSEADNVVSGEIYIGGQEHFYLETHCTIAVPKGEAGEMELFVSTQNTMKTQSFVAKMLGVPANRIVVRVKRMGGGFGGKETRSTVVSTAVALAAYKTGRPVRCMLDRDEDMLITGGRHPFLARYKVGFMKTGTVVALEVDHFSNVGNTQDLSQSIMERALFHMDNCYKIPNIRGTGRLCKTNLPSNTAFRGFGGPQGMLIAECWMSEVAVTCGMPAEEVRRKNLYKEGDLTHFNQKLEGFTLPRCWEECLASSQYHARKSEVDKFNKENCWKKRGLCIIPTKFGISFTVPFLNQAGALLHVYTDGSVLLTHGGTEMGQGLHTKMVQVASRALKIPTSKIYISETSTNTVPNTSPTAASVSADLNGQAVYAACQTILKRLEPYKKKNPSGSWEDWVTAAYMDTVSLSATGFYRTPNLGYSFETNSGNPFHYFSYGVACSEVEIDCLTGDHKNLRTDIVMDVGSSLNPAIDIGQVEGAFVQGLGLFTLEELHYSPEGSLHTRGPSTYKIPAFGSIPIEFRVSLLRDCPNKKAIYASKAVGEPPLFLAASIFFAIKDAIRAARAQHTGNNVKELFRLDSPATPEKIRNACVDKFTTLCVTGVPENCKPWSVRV
Chain of xanthine oxidase (P47989 whole entry): as above

Row | Structure (SMILES) | IC50 [1] [µM] | IC50 [2] [µM] | IC50 (human xanthine oxidase) [µM] | Vmax of xanthine oxidase (xanthine oxidase; Conc. of HET4 0.25 µM) [µmol/min] | Vmax of xanthine oxidase (xanthine oxidase; Conc. of HET4 0.5 µM) [µmol/min] | Vmax of xanthine oxidase (xanthine oxidase; Conc. of HET4 1.0 µM) [µmol/min]
1 | COc1ccc([C@@H]2CC(=O)c3c(OC)cc(OC(=O)C(O)c4ccccc4)cc3O2)cc1OC (some centres unmarked) [HET3] | 3.322 ± 0.01 | – | 12.9 ± 0.72 | – | – | –
2 | COc1ccc([C@@H]2CC(=O)c3c(OC)cc(OC(=O)/C=C/c4ccc(O)c(O)c4)cc3O2)cc1OC [HET4] | 4.642 ± 0.03 | 1.633 ± 0.01 | 9.09 | 116.4 | 112.2 | 103.7
3 | COc1ccc([C@@H]2CC(=O)c3c(O)cc(O)cc3O2)cc1O [Hesperitin] | 14.43 ± 0.14 | 12.9 ± 0.2 | 29.25 ± 0.12 | – | – | –

Continued by falling IC50 [1], values first:

Row | IC50 [1] [µM] | IC50 [2] [µM] | IC50 (human xanthine oxidase) [µM] | Vmax of xanthine oxidase (xanthine oxidase; Conc. of HET4 0.25 µM) [µmol/min] | Vmax of xanthine oxidase (xanthine oxidase; Conc. of HET4 0.5 µM) [µmol/min] | Vmax of xanthine oxidase (xanthine oxidase; Conc. of HET4 1.0 µM) [µmol/min] | Structure (SMILES)
4 | 8.547 ± 0.06 | 6.71 ± 0.15 | 23.2 ± 1.25 | – | – | – | COc1ccc([C@@H]2CC(=O)c3c(OC)cc(OC(=O)c4ccccc4S)cc3O2)cc1OC [HET2]
5 | 7.51 ± 0.02 | 7.11 ± 0.13 | 11.7 | – | – | – | COc1cc(C(=O)Oc2cc(OC)c3c(c2)O[C@H](c2ccc(OC)c(OC)c2)CC3=O)ccc1O [HET6]
6 | 6.37 ± 0.26 | 4.82 ± 0.06 | 10.8 | – | – | – | COc1ccc([C@@H]2CC(=O)c3c(OC)cc(OC(=O)c4cccnc4)cc3O2)cc1OC [HET5]
